Reference: patent US20240082424A1, “CLATHRATE IN WHICH EQUOL IS INCLUDED IN CYCLODEXTRIN, EQUOL-ABSORBENT COMPOSITION CONTAINING SAID CLATHRATE, AND PRODUCTION METHOD THEREFOR” (DAICEL CORPORATION, priority 2020, published 2024)
Converted amounts (≈) assume the structure as drawn.

Key:
[1] = Solubility test (equol concentration dissolved in water); format: physicochemical; conditions: thermodynamic from solid; 300 mg dried product A-1 or 10 mg equol in 10 mL water, stirred at room temperature 2 hours, 0.2-μm filtered; read-out: concentration of equol in the solution (solubility in water)
Description: The dried product A-1 containing an equol clathrate prepared in <<Preparation of Equol Clathrate>> described above was subjected to a solubility test. As a control, a solubility test was performed on equol (available from LC Laboratories) alone.
Specifically, solubility tests were conducted under the following conditions.
300 mg of the dried product A-1 containing an equol clathrate was weighed and mixed with 10 mL of water. Then, the mixture was stirred at room temperature for 2 hours. This liquid was filtered through a 0.2-μm filter, resulting in a solution B-1 of the dried product A-1 containing an equol clathrate. The equol concentration of the solution B-1 was analyzed.
Meanwhile, 10 mg of equol (available from LC Laboratories) was weighed and subjected to the same operation, resulting in a liquid C-1 containing equol alone. The concentration of equol dissolved in the solution C-1 was analyzed.

[2] = Pharmacokinetics (PK) analysis by oral administration in rats; format: in vivo, Crl:CD (SD) rats; conditions: single oral dose, rat plasma, 0.5% CMC suspension, equol clathrate 100 mg/kg, equol 6.3 mg/kg
Description: The equol clathrate A-1 prepared in <<Preparation of Equol Clathrate>> was subjected to pharmacokinetics (PK) analysis using 6-week-old Crl:CD (SD) rats by oral administration. As a control, pharmacokinetics (PK) analysis of equol (available from LC Laboratories) alone was also performed.
Specifically, the administered dose of the equol clathrate A-1 was 100 mg/kg, whereas the dose of equol (available from LC Laboratories) was 6.3 mg/kg, an amount considered to be equivalent to 100 mg/kg of the equol clathrate A-1.
The administered dose of the equol clathrate A-1 and the administered dose of equol were each administered as a single oral dose to 3 animals/group. The test substance used for the administration sample was suspended in 0.5% CMC aqueous solution, and the administered volume was 10 mL/kg.
PK was measured using plasma, and blood was collected at 0 min, 30 min, 1 h, 2 h, 6 h, 12 h, and 24 h. After 24 hours of blood collection, the rats were euthanized.
Note that, in Table 2, “Cmax” means maximum blood concentration, “Tmax” means time to reach Cmax, and “AUC0-24” means area.

solubility at 2 h [1]: 100 µg/mL (≈ 413 µM)
Cmax ([2]; Crl:CD (SD), read-out: Cmax (maximum blood concentration)): 41.6 ng/mL
AUC0-24 (area) [2]: 363 ng·h/mL
SMILES: Oc1ccc([C@H]2COc3cc(O)ccc3C2)cc1 [equol]
